Assay results: ChEMBL document CHEMBL4145614, “Cyclopeptides from the Sponge Stylissa flabelliformis” (J Nat Prod, 2018)
pIC50: −log10 of the molar value.

Experiments:
[1] = test system: SK-HEP1; experiment: Cytotoxicity against human SKHEP1 cells after 72 hrs by sulforhodamine B assay; type: functional, cell-based; conditions: sk-hep1
[2] = test system: Trichophyton rubrum; experiment: Antifungal activity against Trichophyton rubrum IFO 9185 measured after 48 to 72 hrs; type: functional
[3] = test system: Bacillus spizizenii; experiment: Antibacterial activity against Bacillus subtilis ATCC 6633 measured after 24 hrs; type: functional; conditions: ATCC 6633, 24 h
[4] = test system: Salmonella typhimurium; experiment: Antibacterial activity against Salmonella typhimurium ATCC 14028 measured after 24 hrs; type: functional, Salmonella enterica subsp. enterica serovar Typhimurium; conditions: Salmonella enterica, ATCC 14028, 24 h
[5] = test system: Proteus vulgaris; experiment: Antibacterial activity against Proteus vulgaris ATCC 3851 measured after 24 hrs; type: functional; conditions: ATCC 3851, 24 h
[6] = Inhibition of recombinant bacterial sortase A using Dabcyl-QALPETGEE-Edans as substrate measured after 1 hr by fluorescence assay; design: species or system Bacteria
[7] = test system: Aspergillus fumigatus; experiment: Antifungal activity against Aspergillus fumigatus HIC 6094 measured after 48 to 72 hrs; type: functional
[8] = test system: SNU-638; experiment: Cytotoxicity against human SNU638 cells after 72 hrs by sulforhodamine B assay; type: functional, cell-based; conditions: snu-638
[9] = test system: MDA-MB-231; experiment: Cytotoxicity against human MDA-MB-231 cells after 72 hrs by sulforhodamine B assay; type: functional, cell-based
[10] = test system: Escherichia coli; experiment: Antibacterial activity against Escherichia coli ATCC 25922 measured after 24 hrs; type: functional; conditions: ATCC 25922, 24 h
[11] = test system: A549
Description: Cytotoxicity against human A549 cells after 72 hrs by sulforhodamine B assay

[12] = test system: Staphylococcus aureus; experiment: Antibacterial activity against Staphylococcus aureus ATCC 6538P measured after 24 hrs; type: functional
[13] = test system: Candida albicans; experiment: Antifungal activity against Candida albicans ATCC 10231 measured after 48 to 72 hrs; type: functional
[14] = test system: K562; experiment: Cytotoxicity against human K562 cells after 72 hrs by sulforhodamine B assay; type: functional, cell-based; conditions: k562
[15] = test system: HCT-116; experiment: Cytotoxicity against human HCT116 cells after 72 hrs by sulforhodamine B assay; type: functional, cell-based; conditions: hct-116
[16] = test system: Micrococcus luteus; experiment: Antibacterial activity against Micrococcus luteus IFC 12708 measured after 24 hrs; type: functional; conditions: IFC 12708, 24 h
[17] = test system: Trichophyton mentagrophytes; experiment: Antifungal activity against Trichophyton mentagrophytes IFO 40996 measured after 48 to 72 hrs; type: functional
[18] = biological target: Sodium/potassium-transporting ATPase; experiment: Inhibition of potassium-activated sodium/potassium ATPase in human placenta using 3-O-methylfluorescein phosphate as substrate measured for 90 secs by fluorescence assay

Compound	pIC50 [1]	MIC [2]	MIC [3]	MIC [4]	MIC [5]	pIC50 [6]	MIC [7]	pIC50 [8]	pIC50 ([9]; mda-mb-231)	MIC [10]	pIC50 [11]	MIC [12]	MIC [13]	pIC50 [14]	pIC50 [15]	MIC [16]	MIC [17]	pIC50 [18]	pIC50 ([9]; Homo sapiens, MDA-MB-231, 72 h)
CC[C@H](C)[C@@H]1NC(=O)[C@H](Cc2ccc(O)cc2)NC(=O)[C@@H]2CCCN2C(=O)[C@@H]2CCCN2C(=O)[C@H](CC(C)C)NC(=O)[C@H](CCC(=O)O)NC(=O)[C@H](Cc2ccccc2)NC(=O)[C@H](CC[S+](C)[O-])NC(=O)[C@@H]2CCCN2C(=O)[C@@H]2CCCN2C1=O (single isomer, unassigned; Epimer-1)	7.39	> 128 µM	> 128 µM	> 128 µM	> 128 µM	< 4.00	> 128 µM	6.80	6.40	> 128 µM	6.72	> 128 µM	> 128 µM	6.77	6.85	> 128 µM	> 128 µM	< 4.00	–
CC[C@H](C)[C@@H]1NC(=O)[C@H](Cc2ccc(O)cc2)NC(=O)[C@@H]2CCCN2C(=O)[C@@H]2CCCN2C(=O)[C@H](CC(C)C)NC(=O)[C@H](CCC(=O)O)NC(=O)[C@H](Cc2ccccc2)NC(=O)[C@H](CC[S+](C)[O-])NC(=O)[C@@H]2CCCN2C(=O)[C@@H]2CCCN2C1=O (single isomer, unassigned; epimer 2)	7.85	–	–	–	–	–	–	8.00	–	–	7.64	–	–	7.68	7.96	–	–	–	6.46
